Data on 19 molecules can be found in patent US5807983A, “GNRH antagonist betides” (The Salk Institute for Biological Studies, priority 1996, dated 1998).

In the assay the test system is ovulation in mature female Sprague-Dawley rats. Briefly: standard in vivo rat anti-ovulation test. To be noted: injected in bacteriostatic water at about noon on the day of proestrus. As to the method: The betide is assayed in vivo to determine its effectiveness to prevent ovulation in female rats. Inthis test, a specified number of mature female Sprague-Dawley rats, e.g. five to ten, each having a body weight from 225 to 250 grams, are injected with a specified microgram dosage of the betide in bacteriostatic water at about noon on the day of proestrus. Proestrus is the […]. A separate female rat group is used as a control to which the peptide is not administered. Each of the control female rats ovulates on the evening of proestrus; the number of the rats treated which ovulate is recorded.

As to “Ac-γ-(2-naphthoyl)amidoGly-4Cl-D-Phe-D-3Pal-Ser-Aph(atz)-D-Aph(atz)- Leu-Lys(isopropyl)-Pro-D-Ala-NH2 [Betide No. 3A first isomer]”, the “anti-ovulatory activity: rats ovulating out of rats treated” value (shortened to “anti-ovulatory activity”) (dosage 1 μg) was 5 out of 8 and the “anti-ovulatory activity” value (dosage 2.5 μg) is reported as 0/8.

Regarding “Ac-D-2Nal-D-4Cpa-D-3Pal-Ser-Aph(acetyl)-D-Aph(acetyl)-D/L-Agl(methyl,acetyl)-Lys(isopropyl)-Pro-D-Ala-NH2 [Betide No. 6]”, the “anti-ovulatory activity” value by setting is: (dosage 2.5 μg) 2 out of 8; (dosage 10 μg) 0 out of 8. Consider `CC(=O)Nc1ccc(C[C@H](NC(=O)C(NC(=O)CO)NC(=O)[C@@H](Cc2cccnc2)NC(=O)[C@@H](Cc2ccc(Cl)cc2)NC(=O)[C@@H](Cc2ccc3ccccc3c2)NC(C)=O)C(=O)N[C@H](Cc2ccc(NC(C)=O)cc2)C(=O)N[C@@H](CC(C)C)C(=O)N[C@@H](CCCCNC(C)C)C(=O)N2CCC[C@H]2C(=O)N[C@H](C)C(N)=O)cc1` (single isomer, unassigned) [Betide No. 2A other isomer, Ac-D-2Nal-D-4Cpa-D-3Pal-D/L-Agl(HO-Ac)Aph(Ac)-D-Aph(Ac)-Leu-Lys(isopropyl)-Pro-D-Ala-NH2], for which the “anti-ovulatory activity” value (dosage 5 μg) is 4 out of 8. In the case of “Ac-D-2Nal-D-4Cpa-D-3Pal-Ser-Aph(acetyl)-D-Aph(acetyl)-Leu-D/L-Agl(guanidinoacetyl)-Pro-D-Ala-NH2 [Betide No. 7B]”, the “anti-ovulatory activity” value is given as 3 out of 4 (dosage 1 μg), 1 out of 7 (dosage 2.5 μg) and 0/4 (dosage 5 μg). For “Ac-D-2Nal-D-Cpa-D-3Pal-Ser-Aph(acetyl)-D-Aph(acetyl)-D/L-Agl(acetyl)-Lys(isopropyl)-Pro-D-Ala-NH2 [Betide No. 6C]”, the “anti-ovulatory activity” value by setting is: (dosage 0.5 μg) 4 out of 8; (dosage 10 μg) 0 out of 8. For the molecule `CC(=O)Nc1ccc(C[C@H](NC(=O)C(NC(=O)[C@@H](Cc2cccnc2)NC(=O)[C@@H](Cc2ccc(Cl)cc2)NC(=O)[C@@H](Cc2ccc3ccccc3c2)NC(C)=O)N(C)C=O)C(=O)N[C@H](Cc2ccc(NC(C)=O)cc2)C(=O)N[C@@H](CC(C)C)C(=O)N[C@@H](CCCCNC(C)C)C(=O)N2CCC[C@H]2C(=O)N[C@H](C)C(N)=O)cc1` (single isomer, unassigned) [Betide No. 2 one isomer, Ac-D-2Nal-D-4Cpa-D-3Pal-D/L-(methyl,formyl)aminoGly-Aph(Ac)-D-Aph(Ac)-Leu- Lys(isopropyl)-Pro-D-Ala-NH2], the “anti-ovulatory activity” value (dosage 2.5 μg) is given as 5 out of 8. `CC(=O)Nc1ccc(C[C@H](NC(=O)C(NC(=O)CO)NC(=O)[C@@H](Cc2cccnc2)NC(=O)[C@@H](Cc2ccc(Cl)cc2)NC(=O)[C@@H](Cc2ccc3ccccc3c2)NC(C)=O)C(=O)N[C@H](Cc2ccc(NC(C)=O)cc2)C(=O)N[C@@H](CC(C)C)C(=O)N[C@@H](CCCCNC(C)C)C(=O)N2CCC[C@H]2C(=O)N[C@H](C)C(N)=O)cc1` (single isomer, unassigned) [Betide No. 2A one of the isomers, Ac-D-2Nal-D-4Cpa-D-3Pal-D/L-Agl(HO-Ac)Aph(Ac)-D-Aph(Ac)-Leu-Lys(isopropyl)-Pro-D-Ala-NH2]: the “anti-ovulatory activity” value (dosage 5 μg) is 2 out of 8. As to “Ac-β-D-2Nal-(4Cl)D-Phe-D-3Pal-Ser-(4-acetyl-aminobenzyl,methyl)D/L-amidoGly-D-Aph(acetyl)-Leu-Lys(isopropyl)-Pro-D-D-Ala-NH2 [Betide No. 4A]”, the “anti-ovulatory activity” value was 5 out of 8 (dosage 1 μg) and 0/8 (dosage 2.5 μg). For `CC(=O)Nc1ccc(C[C@H](NC(=O)[C@H](CO)NC(=O)[C@@H](Cc2cccnc2)NC(=O)[C@@H](Cc2ccc(Cl)cc2)NC(=O)C(NC(C)=O)N(C)C(=O)c2ccc3ccccc3c2)C(=O)N[C@H](Cc2ccc(NC(C)=O)cc2)C(=O)N[C@@H](CC(C)C)C(=O)N[C@@H](CCCCNC(C)C)C(=O)N2CCC[C@H]2C(=O)N[C@H](C)C(N)=O)cc1` (single isomer, unassigned) [Betide No. 3C first isomer, Ac-D/L-Agl(methyl,2-naphthoyl)-D-4Cpa-D-3Pal-Ser-Aph(acetyl)-D-Aph(acetyl)-Leu-Lys(isopropyl)-Pro-D-Ala-NH2] the same measures were 2 out of 8 and “fully active”. With `CC(=O)Nc1ccc(C[C@H](NC(=O)C(NC=O)NC(=O)[C@@H](Cc2cccnc2)NC(=O)[C@@H](Cc2ccc(Cl)cc2)NC(=O)[C@@H](Cc2ccc3ccccc3c2)NC(C)=O)C(=O)N[C@H](Cc2ccc(NC(C)=O)cc2)C(=O)N[C@@H](CC(C)C)C(=O)N[C@@H](CCCCNC(C)C)C(=O)N2CCC[C@H]2C(=O)N[C@H](C)C(N)=O)cc1` (single isomer, unassigned) [Betide No. 2B other isomer, Ac-D-2Nal-D-4Cpa-D-3Pal-D/L-Agl(formyl)-Aph(Ac)-D-Aph(Ac)-Leu-Lys(isopropyl)-Pro-D-Ala-NH2], the “anti-ovulatory activity” value reads like this: (dosage 1 μg) 6 out of 8; (dosage 5 μg) 0/8. In the case of “Ac-γ-(2-naphthoyl)amidoGly-4Cl-D-Phe-D-3Pal-Ser-Aph(atz)-D-Aph(atz)- Leu-Lys(isopropyl)-Pro-D-Ala-NH2 [Betide No. 3A second isomer]”, the “anti-ovulatory activity” value is, setting by setting: (dosage 1 μg) 4 out of 8; (dosage 2.5 μg) 0/3.

Regarding `CC(=O)Nc1ccc(C[C@H](NC(=O)[C@H](CO)NC(=O)C(NC(=O)c2cccnc2)NC(=O)[C@@H](Cc2ccc(Cl)cc2)NC(=O)[C@@H](Cc2ccc3ccccc3c2)NC(C)=O)C(=O)N[C@H](Cc2ccc(NC(C)=O)cc2)C(=O)N[C@@H](CC(C)C)C(=O)N[C@@H](CCCCNC(C)C)C(=O)N2CCC[C@H]2C(=O)N[C@H](C)C(N)=O)cc1` (single isomer, unassigned) [Betide No. 1 isomer (1), Ac-D-2Nal-(4Cl)D-Phe-γ-(3-pyridyl)amidoGly-Ser-Aph(acetyl)-D-Aph(acetyl)-Leu-Lys(isopropyl)-Pro-D-Ala-NH2], the “anti-ovulatory activity” value is on record as “all 3 rats ovulate” (dosage 1 μg) and 0 out of 7 (dosage 2.5 μg). Regarding `CC(=O)Nc1ccc(C[C@H](NC(=O)[C@H](CO)NC(=O)[C@@H](Cc2cccnc2)NC(=O)[C@@H](Cc2ccc(Cl)cc2)NC(=O)C(NC(C)=O)N(C)C(=O)c2ccc3ccccc3c2)C(=O)N[C@H](Cc2ccc(NC(C)=O)cc2)C(=O)N[C@@H](CC(C)C)C(=O)N[C@@H](CCCCNC(C)C)C(=O)N2CCC[C@H]2C(=O)N[C@H](C)C(N)=O)cc1` (single isomer, unassigned) [Betide No. 3C second isomer, Ac-D/L-Agl(methyl,2-naphthoyl)-D-4Cpa-D-3Pal-Ser-Aph(acetyl)-D-Aph(acetyl)-Leu-Lys(isopropyl)-Pro-D-Ala-NH2], the “anti-ovulatory activity” value (dosage 5 μg) is 6 out of 8. For the molecule `CC(=O)Nc1ccc(C[C@H](NC(=O)C(NC=O)NC(=O)[C@@H](Cc2cccnc2)NC(=O)[C@@H](Cc2ccc(Cl)cc2)NC(=O)[C@@H](Cc2ccc3ccccc3c2)NC(C)=O)C(=O)N[C@H](Cc2ccc(NC(C)=O)cc2)C(=O)N[C@@H](CC(C)C)C(=O)N[C@@H](CCCCNC(C)C)C(=O)N2CCC[C@H]2C(=O)N[C@H](C)C(N)=O)cc1` (single isomer, unassigned) [Betide No. 2B first isomer, Ac-D-2Nal-D-4Cpa-D-3Pal-D/L-Agl(formyl)-Aph(Ac)-D-Aph(Ac)-Leu-Lys(isopropyl)-Pro-D-Ala-NH2], the “anti-ovulatory activity” value by setting is: (dosage 0.5 μg) 4 out of 5; (dosage 1 μg) 2 out of 8; (dosage 5 μg) 0/8. For the molecule `CC(=O)Nc1ccc(C[C@H](NC(=O)[C@H](CO)NC(=O)C(NC(=O)c2cccnc2)NC(=O)[C@@H](Cc2ccc(Cl)cc2)NC(=O)[C@@H](Cc2ccc3ccccc3c2)NC(C)=O)C(=O)N[C@H](Cc2ccc(NC(C)=O)cc2)C(=O)N[C@@H](CC(C)C)C(=O)N[C@@H](CCCCNC(C)C)C(=O)N2CCC[C@H]2C(=O)N[C@H](C)C(N)=O)cc1` (single isomer, unassigned) [Betide No. 1 isomer (2), Ac-D-2Nal-(4Cl)D-Phe-γ-(3-pyridyl)amidoGly-Ser-Aph(acetyl)-D-Aph(acetyl)-Leu-Lys(isopropyl)-Pro-D-Ala-NH2], the “anti-ovulatory activity” value is 3 out of 4 (dosage 0.5 μg), 6 out of 14 (dosage 1 μg) and 0 out of 5 (dosage 2.5 μg). As to “Ac-D-2Nal-(4Cl)D-Phe-D-3Pal-Ser-Aph(acetyl)-D-Aph(acetyl)-Leu-Lys(isopropyl)-Pro-D/L-Agl(methyl)-NH2 [Example 8B]”, the “anti-ovulatory activity” value (dosage 2.5 μg) is given as 0/8.

For “Ac-β-D-2Nal-(4Cl)D-Phe-D-3Pal-Ser-Aph(acetyl)-γ-(4-acetamidophenyl)D/L-amidoGly-Leu-Lys(isopropyl)-Pro-D-Ala-NH2 [Betide No. 5]”, the “anti-ovulatory activity” value (dosage 2.5 μg) was 2 out of 8 and the “anti-ovulatory activity” value (dosage 5 μg) is reported as 1 out of 8. Turning to “Ac-D-2Nal-D-Cpa-D-3Pal-Ser-Aph(acetyl)-D-Aph(acetyl)-D/L-Agl(methyl,isobutyryl)-Lys(isopropyl)-Pro-D-Ala-NH2 [Betide No. 6B]”, the “anti-ovulatory activity” value (dosage 1 μg) is recorded as 2 out of 8 and the “anti-ovulatory activity” value (dosage 2.5 μg) was 0 out of 8. As for “Ac-D-2Nal-(4Cl)D-Phe-D-3Pal-Ser-(4-acetyl-aminobenzyl)D/L-amidoGly-D-Aph(acetyl)-Leu-Lys(isopropyl)-Pro-D-Ala-NH2 [Betide No. 4]”, where the note is “dosage 5 μg”, the “anti-ovulatory activity” value was 2 out of 8.
